From patent publication US11286252B2, “Alkene spirocyclic compounds as farnesoid X receptor modulators” (BRISTOL-MYERS SQUIBB COMPANY, priority 2017, dated 2022)

target: T1, human FXR (Homo sapiens, UniProt Q96RI1); assay: transient human FXR/Gal4-luciferase reporter assay; assay type: cell-based; conditions: Gal4-hFXR fusion construct, luciferase reporter HEK293 cells; response relative to 8 μM GW-4064; unit inferred
T1 construct: expressed in transfected cells; host or cells: HEK293 cells stably carrying a 5xGal4-response-element firefly luciferase reporter, transiently transfected with pcDNA3.1-Gal4-FXR
T1 sequence (Q96RI1 262-486 limits assumed): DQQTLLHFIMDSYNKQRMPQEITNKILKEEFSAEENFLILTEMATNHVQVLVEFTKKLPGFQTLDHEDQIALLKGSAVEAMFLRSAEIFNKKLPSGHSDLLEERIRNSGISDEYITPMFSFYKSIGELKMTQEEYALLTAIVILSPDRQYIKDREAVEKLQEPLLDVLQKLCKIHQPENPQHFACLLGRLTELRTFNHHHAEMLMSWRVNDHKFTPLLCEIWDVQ
Method: The exemplified compounds of the present invention were tested in the transient human FXR/Gal4-luciferase reporter assay, and assay results were reported in Table 1 and Examples 1 to 3 together with other analytical data.
A Gal4-hFXR fusion construct reporter system was used as the primary assay to characterize compound activity. A construct including 5 copies of the Gal4 promoter response element upstream of a firefly luciferase reporter cDNA was stably expressed in HEK293 cells. This reporter cell line was maintained in Dulbecco's Modified Eagle's medium (DMEM; Gibco) supplemented with 1% penicillin-streptomycin (P/S) solution, 500 μg/mL Zeocin and 10% charcoal/dextran-treated fetal bovine serum (cs-FBS) at 37° C. in a humidified 5% CO2 atmosphere. Another plasmid was constructed in which the human cytomegalovirus promoter in the pcDNA3.1 vector directs the expression of the cDNA encoding a fusion protein comprised of the DNA binding domain from the Gal4 transcription factor fused to the ligand binding domain from human FXR.
The day prior to transfection, the reporter cells in culture are detached from the plate with trypsin and plated into a T75 flask at a sufficient density to achieve approximately 90% confluence the next morning. The transfection reagents are prepared by separately diluting 25 μg of the pcDNA3.1-Gal4-FXR plasmid into 1.87 mL of Opti-MEM (Thermo-Fisher), and 40 μL of Lipofectamine 2000 (Thermo-Fisher) into 1.87 mL of Opti-MEM, and then adding the diluted DNA solution into the diluted Lipofectamine 2000 solution and incubating at room temperature for 15-20 minutes. The mixture is further diluted with 10 mL of a solution comprised of DMEM, 10% cs-FBS, and 1% P/S immediately prior to transferring to the cells. The maintenance culture media is aspirated from the cells and the final transfection mixture is added before the cells are incubated overnight at 37° C. in a humidified 5% CO2 atmosphere. This protocol can be scaled up, and the transiently transfected cells can be cryopreserved in an assay-ready format.
For compound testing, 100 nL of the compounds (serial dilutions in DMSO) are dispensed with an Echo acoustic dispenser (Labcyte) into the wells of a Corning/Costar clear bottom 384-well white plate. The transfected cells are harvested, counted, and diluted such that 10-25,000 cells in 25 μL are plated into each well of the 384-well compound assay plate. The compound-treated cells are incubated overnight at 37° C. in a humidified 5% CO2 atmosphere. The next morning 25 μL of Steady-Glo (Promega) are added to each well of the plate, the mixture is incubated for 15 min. with shaking, and luminescence is measured on an Envision (Perkin Elmer) plate reader. Background counts from cells treated with DMSO alone are subtracted from all raw counts, and the corrected values are converted to a percentage of the control response attained with 8 μM GW-4064.

| Compound | EC50 [nM] |
| --- | --- |
| O=C(O)c1ncc(OCC2CC3(CC(/C=C/c4c(-c5ccccc5C(F)(F)F)noc4C4CC4)C3)C2)cc1C(F)(F)F (centres unmarked) [Example 56] | 95 |
| Cn1nc(C(=O)O)cc1OCC1CC2(CC(/C=C/c3c(-c4c(Cl)cncc4Cl)noc3C3CC3)C2)C1 (centres unmarked) [Example 45] | 24 |
| NC(=O)c1cccc(OCC2CC3(CC(/C=C/c4c(-c5ccccc5C(F)(F)F)noc4C4CC4)C3)C2)c1 (centres unmarked) [Example 48] | 214 |
| O=C(O)c1cc(OC2COC2)c2cc(N3CC4(CC(/C=C/c5c(-c6cccnc6C(F)(F)F)noc5C5CC5)C4)C3)ccc2n1 [Example 23] | 165 |

More lines, in order of falling EC50, values ahead:

| EC50 [nM] | Compound |
| --- | --- |
| 429 | Cc1nc(C(=O)O)cc2ccc(N3CC4(CC(/C=C/c5c(-c6c(Cl)cncc6Cl)noc5C5CC5)C4)C3)cc12 [Example 13] |
| 82 | O=C(O)c1cc(C(F)(F)F)c2cc(OCC3CC4(CC(/C=C/c5c(-c6ccccc6C(F)(F)F)noc5C5CC5)C4)C3)ccc2n1 (centres unmarked) [Example 52] |
| 79 | CC(C)Oc1cc(C(=O)O)nc2ccc(N3CC4(CC(/C=C/c5c(-c6c(Cl)cncc6Cl)noc5C5CC5)C4)C3)cc12 [Example 11] |
| 16 | O=C(O)c1ncc(OCC2CC3(CC(/C=C/c4c(-c5ccccc5C(F)(F)F)noc4C4CC4)C3)C2)cc1OC1CC1 (centres unmarked) [Example 61] |
